{
  "source": "patent US20180000768A1",
  "about": "“INTESTINAL FXR AGONISM ENHANCES GLP-1 SIGNALING TO RESTORE PANCREATIC BETA CELL FUNCTIONS” (Salk Institute for Biological Studies, priority 2015, published 2018)",
  "key": {"[1]": {"tested_on": "NCI-H716 cells", "assay": "Extracellular oxygen consumption rate assay (Seahorse XF96)", "format": "cell-based, human", "procedure": "Briefly, NCI-H716 cells were seeded in XF 96-well cell culture microplates (Seahorse Bioscience) at 6.0×10^4 cells per well in 150 μl of growth medium and then incubated at 37° C./5% CO2 for 24 hr. A Seahorse Bioscience instrument model XF96 was used to measure the rate of change of dissolved oxygen in the media surrounding the cells. All procedures followed manufacturer's instructions. […] Conversely, treatment with the FXR antagonist guggulsterone reduced basal respiratory rates and the FCCP-induced maximum respiration rate (FIGS. 9A and 9B). To examine the effects of FXR activity on the secretion of GLP-1, the metabolic changes induced in human L cells was measured after treatment with the FXR agonist, fexaramine and an FXR antagonist, guggulsterone. Treatment of L cells with fexaramine (1 μM for 24 hours) lead to an increase in the oxygen consumption rate (OCR), consistent with increased mitochondrial activity and consequently, an increased energetic state (FIG. 9A). The reverse effect was seen after treatment with the FXR antagonist, guggulsterone, with lower OCR after drug treatment."}, "[2]": {"tested_on": "human enteroendocrinal L cells (NCI-H716)", "assay": "In vitro GLP-1 secretion assay", "format": "cell-based", "conditions": "L cells pretreated with compound", "procedure": "(§1) In vitro GLP-1 secretion assay was performed in human enteroendocrinal L cells (NCI-H716). For each secretion assay, cells were seeded at 1×10^5 cells/ml (1 ml/well) in a matrigel-coated 24-well plate. Prior to GLP-1 secretion assay, cells were pre-treated with DMSO, 1 μM Fex, or 1 μM Fex-D overnight. Cells were deprived in Krebs buffer (with 0.1% BSA) with dipeptidyl peptidase (DPP)-4 inhibitor ([…] sitagliptin). GLP-1 was measured with a commercial kit (EZGLP1T-36K, Millipore). For in vivo GLP-1 secretion, each animal was gavaged with 25 mg per kg of body weight sitagliptin 60-minutes before glucose load. Blood was collected from the tail vein at the indicated intervals, and transferred to serum collection tubes containing sitagliptin."}, "[3]": {"tested_on": "enteroendocrinal L cells", "assay": "Gene expression analysis (QPCR) in enteroendocrinal L cells", "format": "cell-based, human"}, "[4]": {"tested_on": "ob/ob mice", "assay": "in vivo GLP-1 secretion after glucose load", "parameters": "species or system mouse", "conditions": "Fex-treated ob/ob mice, sitagliptin (25 mg/kg) prior to glucose challenge", "procedure": "as §1\nTo investigate whether Fex enhances GLP-1 secretion in vivo, mice were challenged with a DPP4 inhibitor, sitagliptin (25 mg/kg) prior to a glucose challenge."}, "[5]": {"tested_on": "ob/ob mice", "assay": "in vivo glucose-stimulated insulin secretion (GSIS)", "parameters": "species or system mouse", "conditions": "Fex 100 mg/kg daily P.O., 5 weeks", "procedure": "Insulin resistance can be associated with reduced […] insulin secretion in response to glucose, while GLP-1 augments glucose-stimulated insulin secretion (GSIS). To examine whether Fex treatment improves GSIS, serum insulin levels were determined after a glucose challenge in ob/ob mice."}, "[6]": {"tested_on": "ob/ob mice", "assay": "gene expression (RNA-Seq, QPCR) in tissues of treated ob/ob mice", "format": "in vivo, mouse", "procedure": "Total RNA was isolated from cell pellets treated with RNAlater using the RNA mini kit (Qiagen) and treated with DNaseI (Qiagen) for 30 minutes at room temperature. Sequencing libraries were prepared from 100-500 ng total RNA using the TruSeq RNA Sample Preparation Kit v2 (Illumina) according to the manufacturer's protocol. Briefly, mRNA was purified, fragmented, and used for first-, then second-strand cDNA synthesis followed by adenylation of 3′ ends. Samples were ligated to unique adapters and subjected to PCR amplification. Mulitplexed libraries were then validated using the 2100 BioAnalyzer (Agilent), normalized, and pooled for sequencing. RNA-Seq libraries prepared from two biological replicates for each experimental condition were sequenced on the Illumina HiSeq 2500 using bar-coded multiplexing and a 100 bp read length.\nImage analysis and base calling were performed with Illumina CASAVA-1.8.2. This yielded a median of 29.9M usable reads per sample. Short read sequences were mapped to a UCSC mm9 reference sequence using the RNA-seq aligner STAR. Known splice junctions from mm9 were supplied to the aligner and de novo junction discovery was also permitted. Differential gene expression analysis, statistical testing and annotation were performed using Cuffdiff 2. Transcript expression was calculated as gene-level relative abundance in fragments per kilobase of exon model per million mapped fragments and employed correction for transcript abundance bias. RNA-Seq results for genes of interest were also explored visually using the UCSC Genome Browser."}, "[7]": {"assay": "in vitro permeability in Caco2 cells", "conditions": "human; for Papp A→B at 2 h, 10 μM: Caco2 cells, assay conc. 10 μM"}, "[8]": {"tested_on": "human intestinal epithelial Caco2 cells", "assay": "in vitro permeability in Caco2 cells", "conditions": "Caco2 cells, 2 hour incubation"}},
  "note": "“Also recorded” adds a separate entry of the source.",
  "data": [
    {"smiles": "COC(=O)/C=C/c1cccc(N(Cc2ccc(-c3ccc(N(C)C)cc3)cc2)C(=O)C2CCCCC2)c1", "note": "[Fexaramine]", "values": [
      {"measurement": "maximum respiration rate induced by FCCP", "setting": "[1]; L cells, Fex 1 μM for 24 hr, vehicle-treated L cells 130%", "result": 155, "unit": "%"},
      {"measurement": "oxygen consumption rate (OCR)", "setting": "[1]; human L cells, 24 hours, fexaramine 1 μM, guggulsterone 10 μM", "result": "increase"},
      {"measurement": "GLP-1 secretion in response to a glucose challenge", "setting": "[2]", "result": "significant increase"},
      {"measurement": "DPP4 expression", "setting": "[3]", "result": "no effect"},
      {"measurement": "proglucagon expression", "setting": "[3]", "result": "no effect"},
      {"measurement": "SHP expression (FXR target gene)", "setting": "[3]; listed as Fex", "result": "induced; also recorded: induction"},
      {"measurement": "glucose tolerance after DPP4 inhibitor pre-treatment", "setting": "[4]", "result": "improved"},
      {"measurement": "plasma GLP-1 level 20 minutes after the glucose challenge", "setting": "[4]", "result": "increase"},
      {"measurement": "serum insulin after a glucose challenge", "setting": "[5]", "result": "significant increase"},
      {"measurement": "FXR target genes SHP and FGF15 in the intestine", "setting": "[6]; Fex 100 mg/kg daily P.O., 5 weeks, ileum", "result": "markedly upregulated"},
      {"measurement": "expression of the GLP-1 receptor in islets", "setting": "[6]; Fex 100 mg/kg for 5 weeks, listed as Fex", "result": "increased expression; also recorded: significantly increased"},
      {"measurement": "Papp B→A at 2 h, 10 μM", "setting": "[7]; Caco-2", "result": 0.77, "unit": "×10⁻⁶ cm/s"},
      {"measurement": "recovery at 2 h, 10 μM", "setting": "[7]; Caco-2", "result": 150, "unit": "%"},
      {"measurement": "Papp A→B at 2 h, 10 μM", "setting": "[7]; Caco-2, A-B Permeability Ranking", "result": "< 1", "unit": "×10⁻⁶ cm/s"},
      {"measurement": "Papp A→B at 2 h, 10 μM", "setting": "[7]; Caco-2, Mean Papp, A-B, 2 hour incubation", "result": 0.597, "unit": "×10⁻⁶ cm/s"},
      {"measurement": "in vitro permeability", "setting": "[8]", "result": "low"}
    ]}
  ]
}
